Assay results from PubChem BioAssay AID330 (DTP/NCI, 2004).
Toxic doses and inconclusive results are not listed. The calls were made as follows: active = survival T/C of 150% or more; inactive = T/C below 125% in these data.

System: P388 leukemia ip, CD2F1 mice, survival T/C
Assay: NCI In Vivo Anticancer Drug Screen. Data for tumor model P388 Leukemia (intraperitoneal) in CD2F1 (CDF1) mice
Details: endpoint: median survival time, higher = longer survival
How it was run: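 Mice carrying the transplanted tumor received test compound or vehicle. Survival was recorded in each group, and the value is the treated-group measurement divided by that of the vehicle-treated control group.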

[1] = dose: 50.0 mg/kg/injection, schedule: Q01DX009 (ip), vehicle: Klucel (hydroxypropylcellulose) (HPC)
[2] = dose: 100.0 mg/kg/injection, schedule: Q01DX009 (ip), vehicle: Klucel (hydroxypropylcellulose) (HPC)
[3] = dose: 200.0 mg/kg/injection, schedule: Q01DX009 (ip), vehicle: Klucel (hydroxypropylcellulose) (HPC)
[4] = dose: 12.5 mg/kg/injection, schedule: Q01DX005 (ip), vehicle: saline with Tween-80
[5] = dose: 50.0 mg/kg/injection, schedule: Q01DX005 (ip), vehicle: saline with Tween-80
[6] = dose: 60.0 mg/kg/injection, schedule: Q01DX005 (ip), vehicle: saline with Tween-80
[7] = dose: 120.0 mg/kg/injection, schedule: Q01DX005 (ip), vehicle: saline with Tween-80
[8] = dose: 240.0 mg/kg/injection, schedule: Q01DX005 (ip), vehicle: saline with Tween-80
[9] = dose: 50.0 mg/kg/injection, schedule: Q01DX009 (ip), vehicle: saline with Tween-80
[10] = dose: 100.0 mg/kg/injection, schedule: Q04DX003 (ip), vehicle: saline with Tween-80
[11] = dose: 200.0 mg/kg/injection, schedule: Q04DX003 (ip), vehicle: saline with Tween-80
[12] = dose: 50.0 mg/kg/injection, schedule: Q01DX009 (ip), vehicle: saline
[13] = dose: 100.0 mg/kg/injection, schedule: Q01DX009 (ip), vehicle: saline
[14] = dose: 100.0 mg/kg/injection, schedule: Q01DX005 (ip), vehicle: saline with Tween-80
[15] = dose: 200.0 mg/kg/injection, schedule: Q01DX005 (ip), vehicle: saline with Tween-80
[16] = dose: 6.25 mg/kg/injection, schedule: Q01DX009 (ip), vehicle: saline
[17] = dose: 12.5 mg/kg/injection, schedule: Q01DX009 (ip), vehicle: saline
[18] = dose: 100.0 mg/kg/injection, schedule: Q01DX001 (ip), vehicle: Klucel (hydroxypropylcellulose) (HPC)
[19] = dose: 200.0 mg/kg/injection, schedule: Q01DX001 (ip), vehicle: Klucel (hydroxypropylcellulose) (HPC)

Measured: T/C

O=S(=O)(Cc1ccccc1)CS(=O)(=O)Cc1ccccc1
inactive: [1] 104 % of control | [2] 106 % of control | [3] 103 % of control | dose: 400.0 mg/kg/injection, schedule: Q01DX009 (ip), vehicle: Klucel (hydroxypropylcellulose) (HPC) 101 % of control

CN1CCc2cc3c(cc2[C@H]1[C@@H]1OC(=O)c2c1ccc1c2OCO1)OCO3
inactive: dose: 6.25 mg/kg/injection, schedule: Q01DX005 (ip), vehicle: saline with Tween-80 101 % of control | [4] 97 % of control

[N-]=[N+]=Nc1ccccc1C(=O)NCCCNC(=O)c1ccccc1N=[N+]=[N-]
inactive: [4] 91 % of control | dose: 25.0 mg/kg/injection, schedule: Q01DX005 (ip), vehicle: saline with Tween-80 87 % of control | [5] 86 % of control

CC(CN(C)C)C(/C=C/c1ccc(Cl)c(Cl)c1)=N\Nc1ccccc1 (centres undefined)
inactive: [6] 87 % of control | [7] 93 % of control | [8] 87 % of control

COc1ccc(-c2cc(=O)c3c(O)cc(O)cc3o2)cc1
inactive: [9] 90 % of control | dose: 100.0 mg/kg/injection, schedule: Q01DX009 (ip), vehicle: saline with Tween-80 90 % of control | [10] 90 % of control | dose: 200.0 mg/kg/injection, schedule: Q01DX009 (ip), vehicle: saline with Tween-80 110 % of control | [11] 90 % of control

CC(=O)Nc1c(Cl)c(Cl)c2c(c1Cl)Cc1cc(Br)ccc1-2
inactive: [10] 109 % of control

CCCCCCCCCCC(CCCCCCCCCC)c1ccccc1
inactive: dose: 75.0 mg/kg/injection, schedule: Q01DX001 (ip), vehicle: saline sonified 91 % of control | dose: 150.0 mg/kg/injection, schedule: Q01DX001 (ip), vehicle: saline sonified 95 % of control | dose: 300.0 mg/kg/injection, schedule: Q01DX001 (ip), vehicle: saline sonified 95 % of control

NNc1ncc(S(=O)(=O)Cc2ccc3c(c2)OCO3)c(N)n1
inactive: dose: 100.0 mg/kg/injection, schedule: Q01DX001 (ip), vehicle: saline 101 % of control | dose: 200.0 mg/kg/injection, schedule: Q01DX001 (ip), vehicle: saline 98 % of control | dose: 400.0 mg/kg/injection, schedule: Q01DX001 (ip), vehicle: saline 98 % of control

O=C(O)c1cnc2ccccn12
inactive: dose: 50.0 mg/kg/injection, schedule: Q01DX009 (ip), vehicle: acetone 112 % of control | [12] 95 % of control | dose: 100.0 mg/kg/injection, schedule: Q01DX009 (ip), vehicle: acetone 117 % of control | [13] 96 % of control | dose: 200.0 mg/kg/injection, schedule: Q01DX009 (ip), vehicle: acetone 102 % of control | dose: 200.0 mg/kg/injection, schedule: Q01DX009 (ip), vehicle: saline 107 % of control

CCOP(=O)(N(CCCl)CCCl)N1CCc2ccccc2C1 (centres undefined)
inactive: dose: 12.5 mg/kg/injection, schedule: Q04DX003 (ip), vehicle: saline with Tween-80 103 % of control | dose: 25.0 mg/kg/injection, schedule: Q04DX003 (ip), vehicle: saline with Tween-80 98 % of control | dose: 50.0 mg/kg/injection, schedule: Q04DX003 (ip), vehicle: saline with Tween-80 103 % of control | [10] 110 % of control | [11] 112 % of control | dose: 400.0 mg/kg/injection, schedule: Q04DX003 (ip), vehicle: saline with Tween-80 119 % of control

CN1CCc2nc(N)nc(-c3nc(N)nc4c3CN(C)CC4)c2C1
inactive: dose: 60.0 mg/kg/injection, schedule: Q01DX005 (ip), vehicle: saline 100 % of control | dose: 120.0 mg/kg/injection, schedule: Q01DX005 (ip), vehicle: saline 104 % of control | dose: 240.0 mg/kg/injection, schedule: Q01DX005 (ip), vehicle: saline 106 % of control

COC(=O)c1cc2cc(OC)c(OC)cc2c2ccccc12
inactive: [5] 90 % of control | [14] 90 % of control

Cc1ccc(/C=N/S(=O)(=O)Cc2ccccc2)cc1
inactive: [1] 99 % of control | [2] 100 % of control | [3] 100 % of control

COP(=O)(CCC1OCCO1)OC
inactive: [5] 104 % of control | [14] 104 % of control | [15] 99 % of control

CCOC(=O)C(NC(=O)OC(C)(C)C)C(C)C (centres undefined)
inactive: [5] 98 % of control | [14] 100 % of control | [15] 100 % of control

c1ccc([P+](NCCN[P+](c2ccccc2)(c2ccccc2)c2ccccc2)(c2ccccc2)c2ccccc2)cc1
inactive: [16] 97 % of control | [17] 100 % of control

O=C1OC(c2c[nH]c3ccccc3c2=O)c2ccccc21 (centres undefined)
inactive: [6] 103 % of control | [7] 95 % of control | [8] 88 % of control

O=C(Nc1ccc(Cl)cc1)NC1OC(=O)C(Cl)=C1Cl (centres undefined)
inactive: [16] 105 % of control | [17] 108 % of control | dose: 25.0 mg/kg/injection, schedule: Q01DX009 (ip), vehicle: saline 106 % of control | [12] 117 % of control | [13] 106 % of control

CCCCC(NC(=O)OCc1ccccc1)C(=O)NC(Cc1c[nH]c2ccccc12)C(=O)O (centres undefined)
inactive: dose: 50.0 mg/kg/injection, schedule: Q01DX005 (ip), vehicle: Klucel (hydroxypropylcellulose) (HPC) 95 % of control | dose: 100.0 mg/kg/injection, schedule: Q01DX005 (ip), vehicle: Klucel (hydroxypropylcellulose) (HPC) 101 % of control | dose: 200.0 mg/kg/injection, schedule: Q01DX005 (ip), vehicle: Klucel (hydroxypropylcellulose) (HPC) 92 % of control

CCN=C=NCCCN(C)C
inactive: dose: 7.5 mg/kg/injection, schedule: Q01DX009 (ip), vehicle: saline 108 % of control | dose: 7.5 mg/kg/injection, schedule: Q04DX003 (ip), vehicle: saline 102 % of control | dose: 15.0 mg/kg/injection, schedule: Q01DX009 (ip), vehicle: saline 108 % of control | dose: 15.0 mg/kg/injection, schedule: Q04DX003 (ip), vehicle: saline 99 % of control | dose: 30.0 mg/kg/injection, schedule: Q01DX009 (ip), vehicle: saline 105 % of control | dose: 30.0 mg/kg/injection, schedule: Q04DX003 (ip), vehicle: saline 98 % of control | dose: 60.0 mg/kg/injection, schedule: Q01DX009 (ip), vehicle: saline 107 % of control

Nc1nn(-c2cccc(C(F)(F)F)c2)c2cccc[n+]12
inactive: dose: 12.5 mg/kg/injection, schedule: Q01DX009 (ip), vehicle: saline with Tween-80 100 % of control | dose: 25.0 mg/kg/injection, schedule: Q01DX009 (ip), vehicle: saline with Tween-80 105 % of control | dose: 25.0 mg/kg/injection, schedule: Q01DX009 (ip), vehicle: water 111 % of control | [9] 100 % of control | dose: 50.0 mg/kg/injection, schedule: Q01DX009 (ip), vehicle: water 106 % of control

Cc1cc(Br)c2nsnc2c1[N+](=O)[O-]
inactive: [5] 122 % of control

Cc1cc(Cl)nn2cc(C(=O)O)nc12
inactive: dose: 50.0 mg/kg/injection, schedule: Q01DX001 (ip), vehicle: Klucel (hydroxypropylcellulose) (HPC) 104 % of control | [18] 96 % of control | [19] 97 % of control

COc1ccc(NC(=O)CCC2=CC(=O)CC(c3ccccc3)O2)cc1 (centres undefined)
inactive: [6] 105 % of control | dose: 124.0 mg/kg/injection, schedule: Q01DX005 (ip), vehicle: saline with Tween-80 104 % of control | [8] 104 % of control

CN(c1ccccc1)C1C2=C(OC(=O)C1(Cl)Cl)c1sc(-c3ccccc3)nc1CC2 (centres undefined)
inactive: dose: 12.5 mg/kg/injection, schedule: Q04DX002 (ip), vehicle: saline with Tween-80 93 % of control | dose: 25.0 mg/kg/injection, schedule: Q04DX002 (ip), vehicle: saline with Tween-80 97 % of control | dose: 50.0 mg/kg/injection, schedule: Q04DX002 (ip), vehicle: saline with Tween-80 93 % of control | dose: 200.0 mg/kg/injection, schedule: Q04DX002 (ip), vehicle: saline with Tween-80 86 % of control

COc1ccc(C(C)(O)C2CC2)cc1 (centres undefined)
inactive: [18] 107 % of control | [19] 103 % of control | dose: 400.0 mg/kg/injection, schedule: Q01DX001 (ip), vehicle: Klucel (hydroxypropylcellulose) (HPC) 103 % of control
